Measured values taken from patent US20080280974A1, “Spiro compounds for treatment of inflammatory disorders” (priority 2007, published 2008).

What was measured:
[1] = test system: Balb/CJ mice, ovalbumin-sensitized and challenged; experiment: Mouse model of asthma: methacholine-induced airway reactivity (Penh) in ovalbumin-sensitized mice; format: in vivo; conditions: po, 768 h, 50 mg/kg p.o., days 26-32, % inhibition of the PenH vs McH dose AUC compared with vehicle control, day 32, read-out: Reduction of Penh AUC at 50 mg/kg p.o.
Procedure: Protocol for Testing Compounds in a Mouse Model of Asthma
Male 5-6 week old Balb/CJ mice were obtained from Jackson Laboratories (Bar Harbor, Me.). All experimental animals were used in accordance to Institutional Animal Care and Use Committee of AtheroGenics, Inc. Mice were sensitized by administering an intraperitoneal injection of 20 μg of ovalbumin (Calbiochem, La Jolla, Calif.) adsorbed in 2 mg of alum (Imject Alum; Pierce, Rockford, Ill.) on day 0 and 14. A group of mice received saline and served as negative control animals. The mice were challenged by aerosol exposure to ovalbumin (1% [wt/vol]) for 25 minutes on 3 consecutive days (days 28, 29, and 30) in a plexiglas exposure chamber coupled to an Aeroneb nebulizer (Buxco Electronics, Wilmington, N.C.). Experimental compounds were dissolved in Glycofurol/PEG 300/Tween (35%/55%/10%) (Sigma-aldrich; Milwaukee, Wis.). Animals were dosed orally with either test compound or vehicle (6 ml/kg dosing volume) on days 26-32 of study. Compound or vehicle was administered 2 hour before the aerosol challenge on days 28, 29, and 30 and 1 hour before airway reactivity measurement on day 32.
Methacholine-induced airway reactivity was assessed on day 32. Methacholine was administered in increasing concentrations ([…], 1.5, 3, 6, 12, 25, and 50 mg/ml) to unrestrained mice. Increases in airway resistance to Methacholine were determined as enhanced pause, (Penh) values, during and after the exposure (6-minute total analysis time). Mice were then humanely euthanized with an overdose of ketamine/xylazine and plasma samples collected for determination of drug levels. The data is presented as the % inhibition of the PenH vs McH dose AUC compared with the vehicle control.
Data analysis was conducting using the software package, JMP (SAS Institute Inc; Cary, N.C.). The Dunnett's multiple comparison test was used to compare treatment group means to the vehicle control group. P values of less than 0.05 were considered statistically significant. The data (Table 1) are presented as the % inhibition of the PenH vs McH dose AUC compared with the vehicle control.

[2] = test system: IL-6 secreted by human pulmonary artery endothelial cells (HPAEC); experiment: In vitro IL-6 assay: TNF-alpha-stimulated IL-6 secretion by HPAEC, ELISA; format: cell-based; conditions: Endothelial cell, 10 microM compound, 20 hrs preincubation, then 2 ng/ml TNF-alpha for 4 hrs
Procedure: (§1) In Vitro IL-6 and IL-8 Assays
(§2) Compounds at dosing concentrations (with 0.2% DMSO vehicle) were incubated in EGM2MV cell media at 37° C. for overnight, added to 96-well plates seeded with confluent human pulmonary artery endothelial cells (HPAEC) for 20 hrs at 37° C., and then replaced with fresh dosing media containing 2 ng/ml tumor necrosis factor alpha for additional 4 hrs at 37° C. Afterwards, media was removed and used in ELISA assay to quantify the amount of IL-6 and IL-8 secreted by the cells using R&D Systems Duoset ELISA kits.

[3] = test system: IL-8 secreted by human pulmonary artery endothelial cells (HPAEC); experiment: In vitro IL-8 assay: TNF-alpha-stimulated IL-8 secretion by HPAEC, ELISA; format: cell-based; conditions: Endothelial cell, 10 microM compound, 20 hrs preincubation, then 2 ng/ml TNF-alpha for 4 hrs
Procedure: as §1, §2

| Structure (SMILES) | melting point [°C] | inhibition in vivo at 50 mg/kg [1] [%] | inhibition at 10 µM [2] [%] | inhibition at 10 µM [3] [%] |
| --- | --- | --- | --- | --- |
| Cc1cc2c(cc1O)C(C)(C)CC1(CC(C)(C)c3cc(OCCCCO)c(C)cc3O1)O2 (racemic) | 235 to 236 |  |  |  |
| C=CCOc1cc2c(cc1C)OC1(CC(C)(C)c3cc(O)c(C)cc3O1)CC2(C)C (racemic) | 143 to 144 |  |  |  |
| Cc1cc2c(cc1O)C(C)(C)CC1(CC(C)(C)c3cc(OCCO)c(C)cc3O1)O2 (racemic) [Example 1, (±)-6′-Hydroxy-6-(2-hydroxyethoxy)-4,4,4′,4′,7,7′-hexamethyl-2,2′-spirobichroman] | 186 to 188 | < 20 | 20 | 0 |
| Cc1cc(C)n(CCOc2cc3c(cc2C)OC2(CC(C)(C)c4cc(O)c(C)cc4O2)CC3(C)C)n1 (racemic) [Example 2, (±)-6′-Hydroxy-6-[2-(3,5-dimethyl-1H-pyrazol-1-yl)ethoxy]-4,4,4′,4′,7,7′-hexamethyl-2,2′-spirobichroman] |  | < 20 | 9 | 12 |
| Cc1cc2c(cc1O)C(C)(C)CC1(CC(C)(C)c3cc(OCCCO)c(C)cc3O1)O2 (racemic) [Example 3, (±)-6′-Hydroxy-6-(3-hydroxypropoxy)-4,4,4′,4′,7,7′-hexamethyl-2,2′-spirobichroman] | 175 to 177 | 20 to 40 | 53 | 13 |
| Cc1cc2c(cc1O)C(C)(C)CC1(CC(C)(C)c3cc(OCCCn4cccn4)c(C)cc3O1)O2 (racemic) [Example 4, (±)-6′-Hydroxy-6-[3-(1H-pyrazol-1-yl)propoxy]-4,4,4′,4′,7,7′-hexamethyl-2,2′-spirobichroman] |  | < 20 | 44 | 0 |
| Cc1cc2c(cc1O)C(C)(C)CC1(CC(C)(C)c3cc(OC[C@@H](O)CO)c(C)cc3O1)O2 (mixture of isomers) [Example 5, (±)-6′-Hydroxy-6-[2(S),3-dihydroxypropoxy]-4,4,4′,4′,7,7′-hexamethyl-2,2′-spirobichroman] | 218 to 220 | 20 to 40 | 3 | 11 |
| Cc1cc2c(cc1O)C(C)(C)CC1(CC(C)(C)c3cc(OCCCn4ccnc4)c(C)cc3O1)O2 (racemic) [Example 6, (±)-6′-Hydroxy-6-[3-(1H-imidazol-1-yl)propoxy]-4,4,4′,4′,7,7′-hexamethyl-2,2′-spirobichroman] | 209 to 211 |  | 24 | 5 |
| Cc1cc2c(cc1O)C(C)(C)CC1(CC(C)(C)c3cc(OC(C)(C)C(=O)O)c(C)cc3O1)O2 (racemic) [Example 8, (±)-(6′-Hydroxy-4,4,4′,4′,7,7′-hexamethyl-2,2′-spirobichroman-6-yloxy)-dimethylacetic acid] |  | > 40 | 42 | 25 |
| Cc1cc2c(cc1O)C(C)(C)C[C@]1(CC(C)(C)c3cc(OC(C)(C)C(=O)O)c(C)cc3O1)O2 (racemic) [Example 9, (±)-(R)-(6′-Hydroxy-4,4,4′,4′,7,7′-hexamethyl-2,2′-spirobichroman-6-yloxy)-dimethylacetic acid] |  | > 40 |  |  |
| Cc1cc2c(cc1O)C(C)(C)CC1(CC(C)(C)c3cc(OC(C)(C)CO)c(C)cc3O1)O2 (racemic) [Example 11, (±)-6-(2-Hydroxy-1,1-dimethyl-ethoxy)-6′-hydroxy-4,4,4′,4′,7,7′-hexamethyl-2,2′-spirobichroman] | 188 to 189 | < 20 |  |  |
| Cc1cc2c(cc1O)C(C)(C)CC1(CC(C)(C)c3cc(OCC(N)=O)c(C)cc3O1)O2 (racemic) [Example 14, (±)-(6′-Hydroxy-4,4,4′,4′,7,7′-hexamethyl-2,2′-spirobichroman-6-yloxy)-acetamide] | 220 to 221 | < 20 |  |  |
| Cc1cc2c(cc1O)C(C)(C)CC1(CC(C)(C)c3cc(OCCCn4nc(CO)cc4C)c(C)cc3O1)O2 (racemic) [Example 17, (±)-6′-Hydroxy-6-[3-(3-hydroxymethyl-5-methyl-1H-pyrazol-1-yl)propoxy]-4,4,4′,4′,7,7′-hexamethyl-2,2′-spirobichroman] | 217 to 219 | 20 to 40 |  |  |
| Cc1cc(CO)n(CCCOc2cc3c(cc2C)OC2(CC(C)(C)c4cc(O)c(C)cc4O2)CC3(C)C)n1 (racemic) [Example 18, (±)-6′-Hydroxy-6-[3-(5-hydroxymethyl-3-methyl-1H-pyrazol-1-yl)propoxy]-4,4,4′,4′,7,7′-hexamethyl-2,2′-spirobichroman] | 208 to 210 |  | 41 | 5 |
| Cc1cc2c(cc1O)C(C)(C)CC1(CC(C)(C)c3cc(OCC(C)(C)O)c(C)cc3O1)O2 (racemic) [Example 19, (±)-6′-Hydroxy-6-(2-hydroxy-2-methylpropoxy)-4,4,4′,4′,7,7′-hexamethyl-2,2′-spirobichroman] |  | < 20 |  |  |
| COc1cc2c(cc1C)OC1(CC2(C)C)CC(C)(C)c2cc(OCC(=O)O)c(C)cc2O1 (racemic) [Example 20, (±)-(6′-Methoxy-4,4,4′,4′,7,7′-hexamethyl-2,2′-spirobichroman-6-yloxy)-acetic acid] | 195 to 197 | < 20 |  |  |
| C=CCc1c(O)c(C)cc2c1C(C)(C)CC1(CC(C)(C)c3cc(O)c(C)cc3O1)O2 (racemic) [Example 22, (±)-6,6′-Dihydroxy-5-allyl-4,4,4′,4′,7,7′-hexamethyl-2,2′-spirobichroman] | 102 to 104 | < 20 |  |  |
| C=CCc1c(O)c(C)cc2c1C(C)(C)CC1(CC(C)(C)c3c(cc(C)c(O)c3CC=C)O1)O2 (racemic) [Example 23, (±)-6,6′-Dihydroxy-5,5′-diallyl-4,4,4′,4′,7,7′-hexamethyl-2,2′-spirobichroman] | 95 to 97 | < 20 |  |  |
| Cc1cc2c(cc1O)C(C)(C)CC1(CC(C)(C)c3cc(O)c(C)cc3O1)O2 (racemic) [Example 24, (±)-6,6′-Dihydroxy-4,4,4′,4′,7,7′-hexamethyl-2,2′-spirobichroman] |  | 20 to 40 | 65 | 51 |
| Cc1cc2c(cc1O)C(C)(C)CC1(CC(C)(C)c3cc(OCC(=O)OCc4ccccc4)c(C)cc3O1)O2 (racemic) [Example 25, (±)-(6′-Hydroxy-4,4,4′,4′,7,7′-hexamethyl-2,2′-spirobichroman-6-yloxy)-acetic acid Benzyl Ester] | 60 to 65 |  |  |  |
| Cc1cc2c(cc1O)C(C)(C)CC1(CC(C)(C)c3cc(OCC(=O)O[C@@H]4C[C@H](C)CC[C@H]4C(C)(C)c4ccccc4)c(C)cc3O1)O2 (mixture of isomers) [Example 26, (±)-(6′-Hydroxy-4,4,4′,4′,7,7′-hexamethyl-2,2′-spirobichroman-6-yloxy)-acetic acid 5(R)-Methyl-2(S)-(1-methyl-1-phenylethyl)-1(R)-cyclohexyl Ester] | 88 to 93 |  |  |  |
| Cc1cc2c(cc1O)C(C)(C)CC1(CC(C)(C)c3cc(O)c(C)cc3O1)O2 (single isomer, unassigned) [Example 28] |  | 20 to 40 |  |  |
| Cc1cc2c(cc1O)C(C)(C)CC1(CC(C)(C)c3cc(OC(C)(C)C(=O)O)c(C)cc3O1)O2 (stereo in doubt) [Example 10, (−)-(S)-(6′-Hydroxy-4,4,4′,4′,7,7′-hexamethyl-2,2′-spirobichroman-6-yloxy)-dimethylacetic acid] |  | < 20 |  |  |
| C=CCOc1cc2c(cc1C)OC1(CC2(C)C)CC(C)(C)c2cc(OCC=C)c(C)cc2O1 [Example 16, (±)-6,6′-Bisallyloxy-4,4,4′,4′,7,7′-hexamethyl-2,2′-spirobichroman] | 98 to 100 |  |  |  |
| Cc1cc2c(cc1O)C(C)(C)CC1(CC(C)(C)c3cc(O)c(C)cc3O1)O2 [Example 27, (−)-(S)-6,6′-dihydroxy-4,4,4′,4′,7,7′-hexamethyl-2,2′-spirobichroman] | 165 to 166 | > 40 |  |  |
